In patent US9403874B2, “Peptides and use thereof” (IL YANG PHARM. CO.,LTD., priority 2012, dated 2016):

How the values were obtained:
Format in all cases: cell-based
Conditions in all cases: 100 ng/me of peptide; EBV-infected B cells stimulated with anti-CD150; ELISA of culture supernatant
IL-2 = assay: Reduction of IL-2 secretion in activated B cells (ELISA)
Experimental: (§1) In order to determine the activity of the novel peptides synthesized in Example 1 for reducing the secretion of inflammatory cytokines, the activated pathogenic B cells were treated with each of the 18 types of synthesized novel peptides and the reduction in secretion of inflammatory cytokines from the B cells was monitored.
(§2) Specifically, in order to determine whether the novel peptides could weaken the pathogenic B cells which are involved in the development of disease symptoms, the in vitro B cells model which is similar to the joint infiltrative B cells of rheumatoid arthritis was used. The activated pathogenic B cell was generated by stimulating Ebstein Barr virus (EBV)-infected B cells with anti-CD150 antibodies, and the cells were treated with […] of each of the 18 types of novel peptide.
(§3) In order to confirm the effect of 18 types of novel peptides in reducing inflammatory cytokines, the secretion amount of various cytokines (IL-1A, IL-1B, IL-2, IL-4, IL-5, IL-6, IL-8, IL-10, IL-12A, IL-13, IL-17A, GM-CSF, IL-34) secreted from the activated B cells was measured. The supernatants of B cell culture were analyzed enzyme-linked immunosorbent assay (ELISA), and the difference in absorbance (450 nm-570 nm) of the color developing reagent was measured as test results. Based on the measured difference in absorbance (450 nm-570 nm) of the color developing reagent, the absorbance of cytokines secreted when treated with the 18 types of novel […] was calculated in percentage, while setting the absorbance corresponding to the cytokines secreted from the activated B cells stimulated by anti-CD150 as 100%.

IL-4 = assay: Reduction of IL-4 secretion in activated B cells (ELISA)
Experimental: as §1, §2, §3

IL-6 = assay: Reduction of IL-6 secretion in activated B cells (ELISA)
Experimental: as §1, §2, §3

GM-CSF = assay: Reduction of GM-CSF secretion in activated B cells (ELISA)
Experimental: as §1, §2, §3

IL-8 = assay: Reduction of IL-8 secretion in activated B cells (ELISA)
Experimental: as §1, §2, §3

IL-12A = assay: Reduction of IL-12A secretion in activated B cells (ELISA)
Experimental: as §1, §2, §3

IL-17A = assay: Reduction of IL-17A secretion in activated B cells (ELISA)
Experimental: as §1, §2, §3

IL-1A = assay: Reduction of IL-1A secretion in activated B cells (ELISA)
Experimental: as §1, §2, §3

IL-1B = assay: Reduction of IL-1B secretion in activated B cells (ELISA)
Experimental: as §1, §2, §3

IL-10 = assay: Reduction of IL-10 secretion in activated B cells (ELISA)
Experimental: as §1, §2, §3

IL-5 = assay: Reduction of IL-5 secretion in activated B cells (ELISA)
Experimental: as §1, §2, §3

IL-34 = assay: Reduction of IL-34 secretion in activated B cells (ELISA)
Experimental: as §1, §2, §3

IL-13 = assay: Reduction of IL-13 secretion in activated B cells (ELISA)
Experimental: as §1, §2, §3

| Substance | Inhibition rate of each cytokine compared to CD150-stimulated EBV-t B cells (%) IL-2 (IL-2) [%] | Inhibition rate of each cytokine compared to CD150-stimulated EBV-t B cells (%) IL-4 (IL-4) [%] | Inhibition rate of each cytokine compared to CD150-stimulated EBV-t B cells (%) IL-6 (IL-6) [%] | Inhibition rate of each cytokine compared to CD150-stimulated EBV-t B cells (%) GM-CSF (GM-CSF) [%] | Inhibition rate of each cytokine compared to CD150-stimulated EBV-t B cells (%) IL-8 (IL-8) [%] | Inhibition rate of each cytokine compared to CD150-stimulated EBV-t B cells (%) IL-12A (IL-12A) [%] | Inhibition rate of each cytokine compared to CD150-stimulated EBV-t B cells (%) IL-17A (IL-17A) [%] | Inhibition rate of each cytokine compared to CD150-stimulated EBV-t B cells (%) IL-1A (IL-1A) [%] | Inhibition rate of each cytokine compared to CD150-stimulated EBV-t B cells (%) IL-1B (IL-1B) [%] | Inhibition rate of each cytokine compared to CD150-stimulated EBV-t B cells (%) IL-10 (IL-10) [%] | Inhibition rate of each cytokine compared to CD150-stimulated EBV-t B cells (%) IL-5 (IL-5) [%] | Inhibition rate of each cytokine compared to CD150-stimulated EBV-t B cells (%) IL-34 (IL-34) [%] | Inhibition rate of each cytokine compared to CD150-stimulated EBV-t B cells (%) IL-13 (IL-13) [%] |
| --- | --- | --- | --- | --- | --- | --- | --- | --- | --- | --- | --- | --- | --- |
| TDG (SIS-1#11 peptide) | 3.2 | 19.5 | 8.1 | 4.2 | 4.2 | 6.8 | 6.3 | 6.0 | 2.7 | 4.2 | 10.8 | 7.2 | 5.9 |
| PSPRDGRTDG (SIS-1#6 peptide) | 23.1 | 20.5 | 33.9 | 21.2 | 28.0 | 30.8 | 42.2 | 12.0 | 15.2 | 4.5 | 15.6 | 31.0 | 29.4 |
| DGRTDG (SIS-1#9 peptide) | 15.5 | 16.0 | 18.8 | 15.0 | 15.4 | 20.8 | 9.2 | 20.4 | 18.2 | 14.2 | 16.2 | 15.0 | 13.2 |
| RDGRTDGRTD (SIS-1#8 peptide) | 33.0 | 18.9 | 23.8 | 19.8 | 29.2 | 19.2 | 30.1 | 30.2 | 25.9 | 10.0 | 12.0 | 19.8 | 33.5 |
| RTDG (SIS-1#7 peptide) | 7.4 | 10.2 | 11.8 | 4.5 | 3.2 | 11.4 | 9.5 | 6.3 | 5.3 | 5.3 | 3.5 | 2.9 | 3.6 |
| RDG (SIS-1#14 peptide) | 10.2 | 3.0 | 1.5 | 0.3 | 5.7 | 2.9 | 7.7 | 7.2 | 5.3 | 10.4 | 11.0 | 4.2 | 4.4 |
| PSPRDG (SIS-1#5 peptide) | 6.8 | 13.2 | 18.7 | 7.5 | 10.5 | 8.9 | 12.8 | 8.3 | 14.2 | 7.2 | 9.8 | 13.2 | 15.2 |
| RTDCTR (SIS-1#3 peptide) | 12.3 | 13.2 | 18.2 | 7.2 | 19.2 | 19.4 | 11.0 | 14.0 | 20.0 | 25.2 | 17.4 | 9.8 | 10.2 |
| GRTDG (SIS-1#10 peptide) | 11.4 | 19.5 | 25.0 | 13.0 | 17.9 | 29.8 | 25.0 | 7.8 | 4.2 | 7.5 | 24.2 | 27.0 | 25.7 |
| RDGRTDG (SIS-1#2 peptide) | 15.1 | 23.8 | 29.8 | 19.0 | 25.2 | 30.1 | 39.8 | 23.8 | 18.2 | 19.8 | 25.4 | 25.4 | 23.8 |
